Laboratory results reported in patent publication US20240075064A1, “COMPOSITIONS AND METHODS FOR EXPANSION OF T CELLS AND TUMOR INFILTRATING LYMPHOCYTES” (OBSIDIAN THERAPEUTICS, INC., priority 2021, published 2024).

System: IL15 signaling pathway
Test: Phospho-flow cytometry assay of IL15 expression and signaling (pSTAT5, pS6)
Format: cell-based, human
Conditions: regulated mbIL15 TILs, ACZ 0.1-100, 18 hours
Procedure: Pre-REP TILs were prepared similarly to the methods of Example 1-3 and 9, and unengineered and mbIL15 TIL generated accordingly as described in Examples 1-3 and 9. Engagement of the IL15 signaling pathway results in phosphorylation of signal transducers downstream, including the transcription factor protein STATS and ribosomal protein S6. […] Next, the regulated mbIL15 TILs were regulated for 18 hours in the presence of a range of concentrations of ACZ including 0.1, 1, 2.5, 5, 10, 25, 100 as well as vehicle control. The regulated mbIL15 TILs were then collected for staining and FACS analysis.
Briefly, cells were stained using antibodies for CD3, CD4, CD8, IL15 and a Live/Dead marker. Then cells were fixed in 2% formaldehyde (BD Cytofix) and permeabilized using a methanol-based buffer (BD Phospho Perm III Buffer) before staining with antibodies specific for phosphorylated STATS (Biolegend) and S6 (Cell Signaling Technology). Cells were acquired on the BD Symphony and analyzed using FlowJo software.
In order to compare different strategies for IL15 expression, TILs were utilized that constitutively express mbIL15 and regulated mbIL15 TILs. Cryopreserved unengineered TILs, constitutive mbIL15 TILs, and regulated mbIL15 TILs, from three human donors were thawed and then rested in ACZ-free media for 24 hours. […] Cells were acquired on the BD Fortessa and analyzed using FlowJo software.

## CC(=O)Nc1nnc(S(N)(=O)=O)s1 [ACZ, acetazolamide]
  staining intensity of pSTAT5 and pS6: increased with higher concentrations of ACZ
